Active and inactive are the calls of the source. No cut-off for these calls is given here.
Assays:
[1] = test system: NB-4; assay: Cell cycle arrest in human NB4 cells assessed as accumulation of cells at G0/G1 phase at low concentration by DAPI staining based flow cytometric analysis; assay type: functional
[2] = test system: NB-4; assay: Cell cycle arrest in human NB4 cells transfected with pLVX-shRXRalpha plasmid assessed as accumulation of cells at S phase at 2 uM incubated for 12 hrs by DAPI staining based flow cytometric analysis (reference value: 19 %); assay type: functional
[3] = test system: NB-4; assay: Induction of apoptosis in human NB4 cells assessed as early apoptotic cells at 1 uM incubated for 24 hrs by Annexin V-FITC/PI staining based flow cytometric analysis (reference value: 1.77 %); assay type: functional
[4] = test system: NB-4; assay: Cell cycle arrest in human NB4 cells assessed as accumulation of cells at G0/G1 phase at 2 uM incubated for 24 hrs by DAPI staining based flow cytometric analysis (reference value: 48 %); assay type: functional
[5] = test system: NB-4; assay: Cell cycle arrest in human NB4 cells assessed as accumulation of cells at sub-G1 phase at 2 uM incubated for 6 hrs by DAPI staining based flow cytometric analysis (reference value: 3 %); assay type: functional
[6] = Cell cycle arrest in human ATRA-resistant NB4-LR2 cells assessed as accumulation of cells at S phase at 2 uM incubated for 24 hrs by DAPI staining based flow cytometric analysis (reference value: 21 %); assay type: functional
[7] = test system: NB-4; assay: Cell cycle arrest in human NB4 cells assessed as accumulation of cells at G0/G1 phase at 2 uM incubated for 12 hrs by DAPI staining based flow cytometric analysis (reference value: 56 %); assay type: functional
[8] = biological target: T1, Retinoic acid receptor alpha (Homo sapiens, UniProt P10276); assay: Binding affinity to N-terminal His-tagged human RARalpha LBD extracted from Escherichia coli BL21 (DE3) cells assessed as dissociation constant by ITC analysis
T1 sequence (P10276 whole entry): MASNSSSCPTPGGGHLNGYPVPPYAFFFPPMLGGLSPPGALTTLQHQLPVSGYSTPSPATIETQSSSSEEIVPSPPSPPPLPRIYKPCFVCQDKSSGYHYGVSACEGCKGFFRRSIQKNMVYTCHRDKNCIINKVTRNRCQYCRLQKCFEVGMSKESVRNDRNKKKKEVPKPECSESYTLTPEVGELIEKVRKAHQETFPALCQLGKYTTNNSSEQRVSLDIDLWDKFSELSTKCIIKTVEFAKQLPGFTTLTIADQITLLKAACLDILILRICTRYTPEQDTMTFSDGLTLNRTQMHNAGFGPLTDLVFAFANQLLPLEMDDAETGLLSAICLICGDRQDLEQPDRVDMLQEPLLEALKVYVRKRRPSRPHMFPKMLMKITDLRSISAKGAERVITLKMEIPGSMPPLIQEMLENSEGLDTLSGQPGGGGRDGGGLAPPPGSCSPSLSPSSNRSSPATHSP

[9] = test system: NB-4; assay: Cell cycle arrest in human NB4 cells transfected with pLVX-shRNA2-negative control assessed as accumulation of cells at sub-G1 phase at 1 uM incubated for 12 hrs by DAPI staining based flow cytometric analysis (reference value: 4 %); assay type: functional
[10] = test system: NB-4; assay: Cell cycle arrest in human NB4 cells assessed as accumulation of cells at S phase at 1 uM incubated for 12 hrs by DAPI staining based flow cytometric analysis (reference value: 20 %); assay type: functional
[11] = Cell cycle arrest in human ATRA-resistant NB4-LR2 cells assessed as accumulation of cells at S phase at 0.5 uM incubated for 24 hrs by DAPI staining based flow cytometric analysis (reference value: 21 %); assay type: functional
[12] = test system: NB-4; assay: Cell cycle arrest in human NB4 cells assessed as accumulation of cells at sub-G1 phase at 0.5 uM incubated for 24 hrs by DAPI staining based flow cytometric analysis (reference value: 3 %); assay type: functional
[13] = test system: NB-4; assay: Cell cycle arrest in human NB4 cells transfected with pLVX-shRNA2-negative control assessed as accumulation of cells at G2/M phase at 2 uM incubated for 12 hrs by DAPI staining based flow cytometric analysis (reference value: 24 %); assay type: functional
[14] = test system: ATRA-resistant NB4-LR2; assay: Cell cycle arrest in human ATRA-resistant NB4-LR2 cells transfected with pLVX-shRXRalpha assessed as increase in PLK1 expression at 1 uM incubated for 12 hrs by Western blot analysis; assay type: functional, cell-based
[15] = test system: NB-4; assay: Cell cycle arrest in human NB4 cells transfected with pLVX-shPML-RARalpha plasmid assessed as accumulation of cells at G2/M phase at 2 uM incubated for 12 hrs by DAPI staining based flow cytometric analysis (reference value: 22 %); assay type: functional
[16] = test system: NB-4; assay: Cell cycle arrest in human NB4 cells transfected with pLVX-shRNA2-negative control assessed as accumulation of cells at S phase at 1 uM incubated for 12 hrs by DAPI staining based flow cytometric analysis (reference value: 26 %); assay type: functional
[17] = Cell cycle arrest in human ATRA-resistant NB4-LR2 cells assessed as accumulation of cells at G0/G1 phase at 2 uM incubated for 24 hrs by DAPI staining based flow cytometric analysis (reference value: 42 %); assay type: functional
[18] = test system: NB-4; assay: Cell cycle arrest in human NB4 cells assessed as accumulation of cells at sub-G1 phase at 1 uM incubated for 12 hrs by DAPI staining based flow cytometric analysis (reference value: 2 %); assay type: functional
[19] = test system: NB-4; assay: Cell cycle arrest in human NB4 cells transfected with pLVX-shRXRalpha plasmid assessed as accumulation of cells at sub-G1 phase at 1 uM incubated for 12 hrs by DAPI staining based flow cytometric analysis (reference value: 10 %); assay type: functional
[20] = test system: NB-4; assay: Cell cycle arrest in human NB4 cells transfected with pLVX-shRXRalpha plasmid assessed as accumulation of cells at G0/G1 phase at 1 uM incubated for 12 hrs by DAPI staining based flow cytometric analysis (reference value: 53 %); assay type: functional
[21] = Cell cycle arrest in human ATRA-resistant NB4-LR2 cells assessed as accumulation of cells at G2/M phase at 2 uM incubated for 24 hrs by DAPI staining based flow cytometric analysis (reference value: 25 %); assay type: functional
[22] = test system: NB-4; assay: Cell cycle arrest in human NB4 cells transfected with pLVX-shRXRalpha plasmid assessed as accumulation of cells at G2/M phase at 1 uM incubated for 12 hrs by DAPI staining based flow cytometric analysis (reference value: 17 %); assay type: functional
[23] = Cell cycle arrest in human ATRA-resistant NB4-LR2 cells assessed as accumulation of cells at S phase at 2 uM incubated for 12 hrs by DAPI staining based flow cytometric analysis (reference value: 19 %); assay type: functional
[24] = Cell cycle arrest in human ATRA-resistant NB4-LR2 cells assessed as accumulation of cells at G0/G1 phase at 0.5 uM incubated for 24 hrs by DAPI staining based flow cytometric analysis (reference value: 42 %); assay type: functional
[25] = organism: Homo sapiens; assay: Binding affinity to N-terminal His-tagged human RARalpha LBD R276E mutant extracted from Escherichia coli BL21 (DE3) cells by ITC analysis
[26] = test system: NB-4; assay: Cell cycle arrest in human NB4 cells assessed as accumulation of cells at G0/G1 phase at 0.5 uM incubated for 24 hrs by DAPI staining based flow cytometric analysis (reference value: 48 %); assay type: functional
[27] = test system: NB-4; assay: Cell cycle arrest in human NB4 cells assessed as accumulation of cells at S phase at 2 uM incubated for 12 hrs by DAPI staining based flow cytometric analysis (reference value: 20 %); assay type: functional

Compound: Cc1cc2c(cc1C(=O)/C(Br)=C\c1ccc(C(=O)O)cc1)C(C)(C)CCC2(C)C
- Activity [1]: Active

Compound: Cc1cc2c(cc1C(=O)/C(Br)=C/c1ccc(C(=O)O)cc1)C(C)(C)CCC2(C)C
- Activity [2]: 22%
- Activity [3]: 19.18%
- Activity [4]: 35%
- Activity [5]: 3%
- Activity [6]: 22%
- Activity [7]: 11%
- Kd [8]: 1080 nM
- Activity [9]: 7%
- Activity [10]: 13%
- Activity [11]: 12%
- Activity [12]: 5%
- Activity [13]: 44%
- Activity [14]: inactive
- Activity [15]: 20%
- Activity [16]: 8%
- Activity [17]: 34%
- Activity [18]: 5%
- Activity [19]: 11%
- Activity [20]: 36%
- Activity [21]: 23%
- Activity [22]: 45%
- Activity [23]: 10%
- Activity [24]: 37%
- Activity [25]: inactive
- Activity [26]: 59%
- Activity [27]: 22%
